“Also recorded” adds a separate entry of the source.
How the values were obtained:
[1] = target: T1, Notum (Homo sapiens, UniProt Q6P988, C330S); assay: SPR equilibrium binding to biotinylated Notum on streptavidin chip; design: The human Notum enzyme core comprising amino acids S81–T451 with a C330S mutation; made in house; dialyzed conditioned medium used without purification; conditions: result in words
T1 sequence (Q6P988 81-451 C330S): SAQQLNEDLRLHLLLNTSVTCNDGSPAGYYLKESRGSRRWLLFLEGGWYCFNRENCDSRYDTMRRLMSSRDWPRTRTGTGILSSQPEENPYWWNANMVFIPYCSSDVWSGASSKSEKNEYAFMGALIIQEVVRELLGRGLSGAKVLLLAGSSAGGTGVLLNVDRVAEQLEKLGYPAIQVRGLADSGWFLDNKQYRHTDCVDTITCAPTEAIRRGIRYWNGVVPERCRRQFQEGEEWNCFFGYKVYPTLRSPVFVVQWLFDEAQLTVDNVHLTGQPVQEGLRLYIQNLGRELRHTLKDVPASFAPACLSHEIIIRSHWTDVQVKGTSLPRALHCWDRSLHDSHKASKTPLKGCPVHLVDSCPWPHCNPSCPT
Method: The human Notum core sequence was cloned in a pHL-Avi3 vector[49] and co-transfected with the pDisplay_BirA-ER plasmid[50] into HEK293T cells with the media supplemented with 20 µM biotin. This procedure allows in vivo biotinylation to occur, and the dialyzed conditioned medium was directly used for SA sensor chip immobilization without protein purification. […] Approximately 2500 resonance units (RU) of the biotinylated Notum was coupled onto the chip. […] The response was plotted versus the concentration of the analytes and fitted by nonlinear regression to a one-site saturation binding model (GraphPad Prism 8).

[2] = target: T1, Notum; assay: Thermal shift assay (SYPRO Orange) of Notum; conditions: compound 500 µM; for Thermoflour melting curve fluorescence of Notum: Fig 2c
Method: Reference wells, i.e. solutions without compounds were used to compare the melting temperature (Tm). The experiments were performed in triplicate.

[3] = target: T1, Notum; assay: Notum activity assay with OPTS as substrate; type: biochemical; design: The human Notum enzyme core comprising amino acids S81–T451 with a C330S mutation; made in house; dialyzed conditioned medium used without purification; conditions: result in words
Method: OPTS is a common lipase substrate with an octanoyl lipid linked to a fluorescent moiety. It is not a natural Notum substrate; however, it can be used to quantify the enzymatic activity of purified Notum protein[23],[25],[28]. […] The fluorescent lipase substrate OPTS was dissolved in water at a concentration of 20 µM. […] The inhibition curves were fitted with a one-site model with GraphPad Prism 8 software.

In the case of 1,5-dimethylxanthine [theobromine], the “Binding to Notum (SPR response)” value [1] is reported as “did not observe significant responses; also recorded: do not bind Notum”, the “Thermoflour melting curve fluorescence of Notum” value ([2]; Temperature 24.5) is reported as 1404.51 and the “Thermoflour melting curve fluorescence of Notum” value ([2]; Temperature 25.5) is reported as 1219.92. The “Thermoflour melting curve fluorescence of Notum” value ([2]; Temperature 26.5) was 1040.89, the “Thermoflour melting curve fluorescence of Notum” value ([2]; Temperature 27.5) was 912.702 and the “Thermoflour melting curve fluorescence of Notum” value ([2]; Temperature 28.5) was 812.506. For the same substance, the “Thermoflour melting curve fluorescence of Notum” value ([2]; Temperature 29.5) was 748.934, the “Thermoflour melting curve fluorescence of Notum” value ([2]; Temperature 30.5) was 702.942 and the “Thermoflour melting curve fluorescence of Notum” value ([2]; Temperature 31.5) was 648.106. For the same substance, the “Thermoflour melting curve fluorescence of Notum” value ([2]; Temperature 32.5) was 580.173, the “Thermoflour melting curve fluorescence of Notum” value ([2]; Temperature 33.5) was 507.838 and the “Thermoflour melting curve fluorescence of Notum” value ([2]; Temperature 34.5) was 418.887. The “Thermoflour melting curve fluorescence of Notum” value ([2]; Temperature 35.5) was 274.731, the “Thermoflour melting curve fluorescence of Notum” value ([2]; Temperature 36.5) was 90.4697 and the “Thermoflour melting curve fluorescence of Notum” value ([2]; Temperature 37.5) was -139.16. For the same substance, the “Thermoflour melting curve fluorescence of Notum” value ([2]; Temperature 38.5) was -392.32, the “Thermoflour melting curve fluorescence of Notum” value ([2]; Temperature 39.5) was -608.25 and the “Thermoflour melting curve fluorescence of Notum” value ([2]; Temperature 40.5) was -782.991. For the same substance, the “Thermoflour melting curve fluorescence of Notum” value ([2]; Temperature 41.5) was -908.263, the “Thermoflour melting curve fluorescence of Notum” value ([2]; Temperature 42.5) was -987.266 and the “Thermoflour melting curve fluorescence of Notum” value ([2]; Temperature 43.5) was -1014. The “Thermoflour melting curve fluorescence of Notum” value ([2]; Temperature 44.5) was -973.707, the “Thermoflour melting curve fluorescence of Notum” value ([2]; Temperature 45.5) was -878.635 and the “Thermoflour melting curve fluorescence of Notum” value ([2]; Temperature 46.5) was -736.376. The “Thermoflour melting curve fluorescence of Notum” value ([2]; Temperature 47.5) was -559.758, the “Thermoflour melting curve fluorescence of Notum” value ([2]; Temperature 48.5) was -346.91 and the “Thermoflour melting curve fluorescence of Notum” value ([2]; Temperature 49.5) was -78.207. The “Thermoflour melting curve fluorescence of Notum” value ([2]; Temperature 50.5) was 248.299, the “Thermoflour melting curve fluorescence of Notum” value ([2]; Temperature 51.5) was 600.666 and the “Thermoflour melting curve fluorescence of Notum” value ([2]; Temperature 52.5) was 986.098. For the same substance, the “Thermoflour melting curve fluorescence of Notum” value ([2]; Temperature 53.5) was 1440.99, the “Thermoflour melting curve fluorescence of Notum” value ([2]; Temperature 54.5) was 1961.08 and the “Thermoflour melting curve fluorescence of Notum” value ([2]; Temperature 55.5) was 2560.53. The “Thermoflour melting curve fluorescence of Notum” value ([2]; Temperature 56.5) was 3253.14, the “Thermoflour melting curve fluorescence of Notum” value ([2]; Temperature 57.5) was 4045.69 and the “Thermoflour melting curve fluorescence of Notum” value ([2]; Temperature 58.5) was 5053.15. For the same substance, the “Thermoflour melting curve fluorescence of Notum” value ([2]; Temperature 59.5) was 6367.38, the “Thermoflour melting curve fluorescence of Notum” value ([2]; Temperature 60.5) was 8116.48 and the “Thermoflour melting curve fluorescence of Notum” value ([2]; Temperature 61.5) was 10309.5. The “Thermoflour melting curve fluorescence of Notum” value ([2]; Temperature 62.5) was 12803.5, the “Thermoflour melting curve fluorescence of Notum” value ([2]; Temperature 63.5) was 15345.7 and the “Thermoflour melting curve fluorescence of Notum” value ([2]; Temperature 64.5) was 17689.5. The “Thermoflour melting curve fluorescence of Notum” value ([2]; Temperature 65.5) was 19737.1, the “Thermoflour melting curve fluorescence of Notum” value ([2]; Temperature 66.5) was 21432.6 and the “Thermoflour melting curve fluorescence of Notum” value ([2]; Temperature 67.5) was 22887.7. For the same substance, the “Thermoflour melting curve fluorescence of Notum” value ([2]; Temperature 68.5) was 24216, the “Thermoflour melting curve fluorescence of Notum” value ([2]; Temperature 69.5) was 25446.3 and the “Thermoflour melting curve fluorescence of Notum” value ([2]; Temperature 70.5) was 26564.8. The “Thermoflour melting curve fluorescence of Notum” value ([2]; Temperature 71.5) was 27592.2, the “Thermoflour melting curve fluorescence of Notum” value ([2]; Temperature 72.5) was 28538.2 and the “Thermoflour melting curve fluorescence of Notum” value ([2]; Temperature 73.5) was 29406. For the same substance, the “Thermoflour melting curve fluorescence of Notum” value ([2]; Temperature 74.5) was 30226.8, the “Thermoflour melting curve fluorescence of Notum” value ([2]; Temperature 75.5) was 30994.2 and the “Thermoflour melting curve fluorescence of Notum” value ([2]; Temperature 76.5) was 31712.3. The “Thermoflour melting curve fluorescence of Notum” value ([2]; Temperature 77.5) was 32380.8, the “Thermoflour melting curve fluorescence of Notum” value ([2]; Temperature 78.5) was 33030.5 and the “Thermoflour melting curve fluorescence of Notum” value ([2]; Temperature 79.5) was 33697.5. For the same substance, the “Thermoflour melting curve fluorescence of Notum” value ([2]; Temperature 80.5) was 34352.1, the “Thermoflour melting curve fluorescence of Notum” value ([2]; Temperature 81.5) was 34969.9 and the “Thermoflour melting curve fluorescence of Notum” value ([2]; Temperature 82.5) was 35562.2. The “Thermoflour melting curve fluorescence of Notum” value ([2]; Temperature 83.5) was 36162.5, the “Thermoflour melting curve fluorescence of Notum” value ([2]; Temperature 84.5) was 36803.8 and the “Thermoflour melting curve fluorescence of Notum” value ([2]; Temperature 85.5) was 37475.6. The “Thermoflour melting curve fluorescence of Notum” value ([2]; Temperature 86.5) was 38149.2, the “Thermoflour melting curve fluorescence of Notum” value ([2]; Temperature 87.5) was 38788.7 and the “Thermoflour melting curve fluorescence of Notum” value ([2]; Temperature 88.5) was 39302.1. For the same substance, the “Thermoflour melting curve fluorescence of Notum” value ([2]; Temperature 89.5) was 39800.1, the “Thermoflour melting curve fluorescence of Notum” value ([2]; Temperature 90.5) was 40397.5 and the “Thermoflour melting curve fluorescence of Notum” value ([2]; Temperature 91.5) was 41008.7. For the same substance, the “Thermoflour melting curve fluorescence of Notum” value ([2]; Temperature 92.5) was 41535.5, the “Thermoflour melting curve fluorescence of Notum” value ([2]; Temperature 93.5) was 42071.6 and the “Thermoflour melting curve fluorescence of Notum” value ([2]; Temperature 94.5) was 42644. The “Thermoflour melting curve fluorescence of Notum” value ([2]; Temperature 95.5) was 43225, the “Thermoflour melting curve fluorescence of Notum” value ([2]; Temperature 96.5) was 43850.3 and the “Thermoflour melting curve fluorescence of Notum” value ([2]; Temperature 97.5) was 44460.4. For the same substance, the “Effect on Tm of Notum” value [2] was “little effect on the Tm”, the “Melting temperature (Tm) of Notum” value ([2]; Notum without compounds Tm 63.6 °C) was 63.4 °C and the “Notum inhibitory effect in OPTS enzyme assay” value [3] was “could not detect obvious Notum inhibitory effects”.
